The structures appear in SMILES notation.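 Method: 48-hour compound exposure of cells in 96-well plates, five concentrations, linear interpolation of endpoints. Abbreviation: GI50, concentration required for 50% inhibition of growth. TGI marks complete inhibition of growth.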

This test has as its system MDA-MB-468 breast. Description: NCI-60 cell line screen, 48 h.
In the case of `O=C(Nc1nc2ccc(S(=O)(=O)Nc3ccc(C4(C(F)(F)F)CC4)cc3)cc2[nH]1)c1cnccn1`, the GI50 is 0.515 µM and the TGI came out at 5.74 µM.

Turning to `COc1ccc(-c2cnc(-c3ccncc3-c3cccc(OC)c3)o2)cc1`, the GI50 was 0.178 µM and the TGI stood at 10.4 µM.

In the case of `C/C(=N/NC(N)=S)c1ccc(Nc2nc(SCC(C)C)nc(-c3ccc(F)cc3)c2C#N)cc1`, the GI50 is 1.06 µM and the TGI was 7.7 µM.

The record behind these values is PubChem BioAssay (NCI).
